Experiments:
diabetic KKAy mice [1] = test: Oral glucose tolerance test in diabetic KKAy mice, intraperitoneal treatment; format: in vivo; design: Serum glucose level: unit not given here; details: for Serum glucose level: oral glucose tolerance test
Method: (§1) The diabteic KKAy mice were divided into four groups consisting of 6 animals per group. Animals in the control group were intraperitoneally administered 0.1 mL saline. Animals in the second, third, and fourth groups were similarly administered with 100, 200, 400 nmole/kg des-aspartate-angiotensin I, respectively. Treatment with saline and des-aspartate-angiotensin I was carried out daily for 4 weeks. Following this, animals were fasted overnight for 16 hours and oral glucose tolerance test was performed as follows: blood was withdrawn from the orbital sinus for blood glucose determination (time of withdrawal was designated as 0 time), animals were then orally administered glucose (2 g/kg), and blood was withdrawn at 30, 60 and 120 min for blood glucose determination.
as §1, with “diabetic” for “diabteic”, “respectively in 0.1 ml of PBS.” for “respectively.”, “determination. The blood was allowed to clot and blood glucose was measured as serum glucose using a commercial glucose kit from Thermo Electron Corporation, Australia.” for “determination.”

diabetic KKAy mice [2] = test: Oral glucose tolerance test in diabetic KKAy mice, oral treatment; format: in vivo; design: Serum glucose level: unit not given here; details: for Serum glucose level: oral glucose tolerance test
Method: (§2) A dose-range finder experiment to determine the hypoglycaemic dose for orally administered des-aspartate-angiotensin I was also carried out. In this experiment, the animals in each of the three treatment groups of 7 diabetic KKAy mice were orally administered (by gavage) 200, 400, and 600 nmole/kg/day des-aspartate-angiotensin I in volume of 0.1 mL, respectively. Animals in the control group were similarly administered 0.1 mL water. The treatment period was 4 weeks. Oral glucose tolerance test was carried out as described in Example 5, except that blood was sampled at 0 and 30 min.
as §2, with “In” for “A dose-range finder experiment to determine the hypoglycaemic dose for orally administered des-aspartate-angiotensin I was also carried out. In”, “mL water,” for “mL,”, “EXAMPLE 7,” for “Example 5,”

Work on “des-aspartate-angiotensin I (RVYIHPFHL; Angiotensin-1; UniProt P01019 26-34, looked up, fragment) [endogenous angiotensin peptide derived from angiotensin I by a specific aminopeptidase; purchased from Bachem]” yielded a Serum glucose level (diabetic KKAy mice [1]; 100 nmole/kg i.p. daily for 4 weeks, 0 min) of 7.9 ± 0.9, a Serum glucose level (diabetic KKAy mice [1]; 100 nmole/kg i.p. daily for 4 weeks, 30 min) of 21.2 ± 1.6 and a Serum glucose level (diabetic KKAy mice [1]; 100 nmole/kg i.p. daily for 4 weeks, 60 min) of 13.4 ± 1.3. The Serum glucose level (diabetic KKAy mice [1]; 100 nmole/kg i.p. daily for 4 weeks, 120 min) was 9.9 ± 0.5, the Serum glucose level (diabetic KKAy mice [1]; 200 nmole/kg i.p. daily for 4 weeks, 0 min) was 6.9 ± 0.9 and the Serum glucose level (diabetic KKAy mice [1]; 200 nmole/kg i.p. daily for 4 weeks, 30 min) was 16.0 ± 1.4. The Serum glucose level (diabetic KKAy mice [1]; 200 nmole/kg i.p. daily for 4 weeks, 60 min) was 14.5 ± 0.9, the Serum glucose level (diabetic KKAy mice [1]; 200 nmole/kg i.p. daily for 4 weeks, 120 min) was 8.7 ± 1.2 and the Serum glucose level (diabetic KKAy mice [1]; 400 nmole/kg i.p. daily for 4 weeks, 0 min) was 6.5 ± 0.6. The Serum glucose level (diabetic KKAy mice [1]; 400 nmole/kg i.p. daily for 4 weeks, 30 min) was 15.4 ± 1.6, the Serum glucose level (diabetic KKAy mice [1]; 400 nmole/kg i.p. daily for 4 weeks, 60 min) was 13.0 ± 1.1 and the Serum glucose level (diabetic KKAy mice [1]; 400 nmole/kg i.p. daily for 4 weeks, 120 min) was 8.8 ± 0.6. The “blood glucose level at 30 and 60 min of the oral glucose tolerance test” value (diabetic KKAy mice [1]; doses of 200 and 400 nmole/kg/day i.p. for 4 weeks, vs control) was “significantly lowered”, the Serum glucose level (diabetic KKAy mice [2]; 200 nmole/kg/day oral (gavage) for 4 weeks, 0 min) was 8.9 ± 1.0 and the Serum glucose level (diabetic KKAy mice [2]; 200 nmole/kg/day oral (gavage) for 4 weeks, 30 min) was 37.7 ± 2.6. The Serum glucose level (diabetic KKAy mice [2]; 400 nmole/kg/day oral (gavage) for 4 weeks, 0 min) was 9.1 ± 1.6, the Serum glucose level (diabetic KKAy mice [2]; 400 nmole/kg/day oral (gavage) for 4 weeks, 30 min) was 26.0 ± 3.6 and the Serum glucose level (diabetic KKAy mice [2]; 600 nmole/kg/day oral (gavage) for 4 weeks, 0 min) was 8.9 ± 0.7. For the same substance, the Serum glucose level (diabetic KKAy mice [2]; 600 nmole/kg/day oral (gavage) for 4 weeks, 30 min) was 17.5 ± 1.9 and the hypoglycaemic action (diabetic KKAy mice [2]; oral dose of 600 nmole/kg/day for 4 weeks, KKAy mice) was “significant hypoglycaemic action”.
